The source of these data is patent publication US8354388B2, “Inhibitors of MRP4 for the treatment of vascular disorders” (INSERM (Institut National de la Sante et de la Recherche …, priority 2007, dated 2013).

“Also recorded” adds a separate entry of the source. Where two headings read alike, the source gives them in different places.

Data set [1] deals with cyclic nucleotide efflux from hCASMCs. The experiment in a line: cAMP and cGMP competitive enzyme immunoassay, intra-/extra-cellular ratio in hCASMC. Type of data set: cell-based, human. To be noted: hCASMC transfected 72 h. The protocol:
Cyclic GMP and AMP were measured in cell culture supernates and in cell lysates in hCASMC transfected for 72 h either with the scramble siRNA or the MRP4 siRNA by specific competitive enzyme immunoassay as described by the manufacturer (R&D systems).

Data set [2] concerns human pulmonary artery smooth muscle cells (hPASMC). Briefly: BrdU incorporation proliferation assay in hPASMC. Type of data set: cell-based. From the text: FIG. 10. Inhibition of hPASMC (human pulmonary artery smooth musclulare cells) proliferation with MRP4 siRNA.
On the technique in general: Dividing cells build labelled thymidine or BrdU into new DNA.

A further data set concerns hCASMC. Briefly: TUNEL staining for apoptosis in hCASMC. Type of data set: cell-based, human. To be noted: siRNA transfected 72 h. On the procedure:
MRP4 or scramble siRNA were transfected in hCASMC for 72 h and the apoptosis was analyzed by TUNEL staining (ApopTag Red, Serologicals Corp). For the positive control, cells were treated with staurosporin (10 μM) for 1 h.

For data set [3], the system named is cAMP responsive element CRE. Briefly: CRE-luciferase reporter gene assay in hCASMC. To be noted: 5% S, percent of control. Type of data set: cell-based, human. The protocol: Cells were co-transfected with the siRNA (50 nM) and the CRE-luciferase reporter gene plasmid (Stratagene) by electroporation using amaxa® Nucleofector technology according to manufacturer's instructions. After, a period of 6 h, the medium was replaced with supplement containing medium. Cells were grown in the presence of 5% S for 66 h. The results are means for three independent experiments performed in triplicate. The luciferase activity was measured by using “the luciferase assay kit” (Promega). It was expressed as percent of control in relative luciferase units.
On the technique in general: A reporter such as luciferase makes a cellular process visible.

The test system of the next data set is human MRP4. The experiment in a line: MRP4 silencing in hCASMC (quantitative real-time PCR, western blot). Type of data set: cell-based. To be noted: siRNA 50 nM, 72 hours after transfection. On the procedure: Total RNA was prepared using RNeasy Mini Kit […] and 1 μg was reverse-transcribed using a standard protocol. One tenth of the resulting cDNA was amplified by 35 cycles of 30 s at 94° C., 30 s at Tm (60° C. for MRP4, MRP5 and RPL32) and 30 s at 72° C., followed by a final amplification at 72° C. for 10 min using 1 unit of BIOTAQ DNA Polymerase (Bioline) and 200 pmol each of the following primers: […]
Gene specific primers were used to amplify mRNA by qPCR on a Mx4000 apparatus (Stratagene) using the Qiagen SYBR Green master mix. The specificity of each primer set was monitored by analysis of the dissociation curve. A sample volume of 25 μl was used for each assay, which contained a 1× final concentration of SYBR green PCR master mix, 400 nM gene specific primers, and 5 μl template.
Total cell lysates were prepared according to standard protocol (Upstate Biotechnology). […] Optical Density was quantified using ImageJ software (National Institutes of Health, Bethesda, Md.). […]
A general note: Real-time PCR tracks product formation cycle by cycle.

The subject of data set [4] is phosphorylated CREB (pCREB). The experiment in a line: Phosphorylated CREB western blot in proliferating hCASMC. Type of data set: cell-based, human. To be noted: p=0.003. The protocol: Total cell lysates were prepared according to standard protocol (Upstate Biotechnology). Membrane proteins were isolated by scraping the cells in buffer A (5 mmol/L Tris/HCl, 250 mmol/L sucrose, and 0.1 mmol/L ethylenediaminetetraacetic acid supplemented with protease inhibitors cocktail (Sigma). The lysate was centrifuged at 10000 g for 10 min at 4° C. and the supernatant further centrifuged at 100000 g for 1 h at 4° C. The resulting pellet was resuspended in buffer A. Proteins (50 μg) were separated by SDS 12% PAGE, blotted on Hybond-C membrane (Amersham Biosciences) and incubated with various antibodies. The anti-MRP4 antibody was previously described^17. Other antibodies were: anti-MRP5 antibody (1:250; Santa-Cruz Biotechnology), anti-Caveolin1 (1:5000, Abcam), anti-cyclinD1 (1:500, BD Biosciences), anti-PP2B (calcineurin) (1:250; BD Biosciences), anti-CREB (1:1000; Upstate Biotechnology), anti-phosphorylated CREB (1:1000; Upstate Biotechnology). Immunoreactive proteins were visualized using an ECL® (enhanced chemiluminescence) detection system (Amersham Biosciences). Optical Density was quantified using ImageJ software (National Institutes of Health, Bethesda, Md.). […]

In data set [5] the test system is human coronary artery smooth muscle cells (hCASMC). Briefly: BrdU incorporation proliferation assay in hCASMC. To be noted: for inhibitory effect on hCASMC proliferation under inhibition of PKA by Ad-PKI: infection with Ad-PKI; for dose-effect on hCASMC proliferation: increasing doses; for hCASMC proliferation, relative increase compared to 0.1% S: without inhibitors 240±15.8%.
Protocol: Cell proliferation was measured 72 hours after plating by BrdU incorporation and expressed as relative increase compared to growth supplement starved (0.1% S) cells. […] (b) Dose-effect of MRP and PDE inhibitors (DIP: Dipyridamole, IBMX, MK571 and NBMPR) on hCASMC proliferation. n=3 experiments in triplicate. * p≦0.05, ** p≦0.01, *** p≦0.001
Human smooth muscle cells were cultured in 96-wells tissue culture plates for 3 days in Smooth Muscle Cell Basal Medium 2 supplemented with 5% S. Medium containing 0.1% S was used for the growth arrest control. Cells were incubated with pharmacological agents or siRNA for 72 h in medium containing 5% S. BrdU was added for the last 16 hours. The cell culture plates were washed, and a colorimetric BrdU cell proliferation assay was performed according to the manufacturer's instructions (Roche).

The test system of data set [6] is intracellular cAMP in hCASMC. Briefly: FRET imaging of cAMP with Epac2-camps in hCASMC. To be noted: Homo sapiens, read-out: EC50, dose providing 50% of maximal cAMP formation. The format is cell-based. On the procedure: hCASMCs were transfected with scramble siRNA or the siRNA against MRP4 (each at 50 nM) in supplement-free medium over a period of 6 h, before the medium was replaced with supplement-containing medium. 24 h after the transfection, cells were infected with an adenovirus encoding the FRET-based cAMP sensor Epac2-camps. This FRET-based cAMP sensor contains a single cAMP binding domain of Epac2 fused to YFP and CFP fluorescent proteins. Upon addition of forskolin, increasing intra-cellular cAMP concentrations lead to a reversible conformational change of Epac2-camps which results in a decrease of FRET between CFP and YFP, leading to an increase in the CFP/YFP ratio^13. Imaging experiments were performed at 72 h and at room temperature. Cells were maintained in a K^+-Ringer solution containing (in mmol/L): NaCl 121.6, KCl 5.4, MgCl2 1.8; CaCl2 1.8; NaHCO3 4, NaH2PO4 0.8, D-glucose 5, sodium pyruvate 5, HEPES 10, adjusted to pH 7.4. Images were captured every 5 s using the 40× oil immersion objective of a Nikon TE 300 inverted microscope connected to a software-controlled (Metafluor, Molecular Devices, Sunnyvale, Calif., USA) cooled charge coupled (CCD) camera (Sensicam PE; PCO, Kelheim, Germany). […] Average fluorescence intensity was measured in a region of interest comprising the entire cell. […]
All quantitative data are presented as means ±SD. […]

Where [7] appears, read: 5% S, 72 h, maximal dose used (MK571 37.5 μM, NBMPR 100 μM).

As to “MRP4 siRNA: siRNA against human MRP4, sense 5′-CAGUGUUCUUACACUUCCUTT-3′ (SEQ ID NO:7), anti-sense 5′-AGGAAGUGUAAGAACACUGTT-3′ (SEQ ID NO:8) (chemistry not given here)”, in data set [1], the “cAMP intra-cellular/extra-cellular ratio compared to scramble siRNA” value is listed as 289±12.5% and the “cGMP intra-cellular/extra-cellular ratio compared to scramble siRNA” value is on record as 230±5.5%. Besides, in data set [2], the “hPASMC proliferation compared to scrambled siRNA” value was “significant decrease; also recorded: inhibits”. In the data set with hCASMC, the “apoptosis in hCASMC” value is “not associated with apoptosis”. For the same compound, the “CRE-luciferase activity compared to scramble siRNA” value in data set [3] turned out to be 553±25%. In addition, the “decrease in MRP4 mRNA compared to scramble siRNA” value in the data set with human MRP4 was found to be 75±1%. The “decrease in MRP4 protein level compared to scramble siRNA” value in the data set with human MRP4 (western blot) is 74±6.8%. Also, the “increase in level of pCREB compared to scramble siRNA” value in data set [4] is given as 329±15%. The “inhibitory effect on hCASMC proliferation under inhibition of PKG by KT5823” value in data set [5] (KT5823, MK571 37.5 μM, NMBPR 100 μM) is “not by the inhibition of cGMP-dependent protein kinase G”. Also, the “inhibitory effect on hCASMC proliferation under inhibition of PKA by Ad-PKI” value (“inhibitory effect … by Ad-PKI” for short) in data set [5] (MK571 37.5 μM, NMBPR 100 μM) is on record as “completely reversed”. Besides, the “supplement mix-induced hCASMC proliferation, relative increase compared to 0.1% S” value in data set [5] (siRNA 50 nM, 72 h, 5% S, scramble siRNA 313±35%) came out at 183±27%.

For `C=C[C@@]1(C)CC(=O)[C@]2(O)[C@@]3(C)[C@@H](O)CCC(C)(C)[C@@H]3[C@H](O)[C@H](OC(C)=O)[C@@]2(C)O1` [forskolin], the concentration giving a half-maximal response (EC50) – broadly, the concentration giving half of the maximal effect – in data set [6] (MRP4 siRNA transfected hCASMC) was 3 ± 0.6 µM; in data set [6] (scramble siRNA transfected hCASMC), 13.3 ± 2.2 µM.

Turning to `OCCN(CCO)c1nc(N2CCCCC2)c2nc(N(CCO)CCO)nc(N3CCCCC3)c2n1` [dipyridamole], in data set [5] (5% S, 72 h), the “reduction of hCASMC proliferation compared to MK571 or NBMPR” value is listed as “no significant difference” and the “dose-effect on hCASMC proliferation” value is “dose-dependent inhibition”.

`CN(C)C(=O)CCSC(SCCC(=O)O)c1cccc(/C=C/c2ccc3ccc(Cl)cc3n2)c1` (centres unmarked) [MK571]: in data set [5] (5% S, 72 h), the “dose-effect on hCASMC proliferation” value is given as “dose-dependent inhibition”. For the same compound, in data set [5] (setting [7]), the “hCASMC proliferation, relative increase compared to 0.1% S” value came to 153±11%. Also, in data set [5] (MK571 37.5 μM, NMBPR 100 μM), the “inhibitory effect … by Ad-PKI” value is given as “also reversed”.

Turning to `O=[N+]([O-])c1ccc(CSc2ncnc3c2ncn3[C@@H]2O[C@H](CO)[C@@H](O)[C@H]2O)cc1` [NBMPR], in data set [5] (5% S, 72 h), the “dose-effect on hCASMC proliferation” value is “dose-dependent inhibition”. The “hCASMC proliferation, relative increase compared to 0.1% S” value in data set [5] (setting [7]) came to 140±15%. The “inhibitory effect … by Ad-PKI” value in data set [5] (MK571 37.5 μM, NMBPR 100 μM) is recorded as “also reversed”.

For `CC(C)Cn1c(=O)n(C)c(=O)c2[nH]cnc21` [IBMX], in data set [5] (5% S, 72 h, IBMX 100 μM), the “hCASMC proliferation, relative increase compared to 0.1% S” value is 170±12%. Besides, the “dose-effect on hCASMC proliferation” value in data set [5] (5% S, 72 h) was “dose-dependent inhibition”.
